Measured values published in the NIST ThermoML archive (doi:10.1016/j.jct.2012.02.011).
Numbers after ± are expanded uncertainties.

Assay: relative permittivity at various frequencies (dimensionless); xn = mol fraction of the nth substance listed
Conditions: 101.33 kPa, Liquid, Frequency=3 MHz, OH-301

CCCOCCO [2-propoxyethanol] + O=[N+]([O-])c1ccccc1
relative permittivity
Conditions | 293.15 K | 298.15 K | 303.15 K | 308.15 K | 313.15 K
x2 = 0 | 11.76 ± 0.04 | 11.5 ± 0.04 | 11.19 ± 0.04 | 10.91 ± 0.04 | 10.62 ± 0.04
x2 = 0.0497 | 14.29 ± 0.05 | 13.73 ± 0.05 | 13.13 ± 0.05 | 12.57 ± 0.05 | 12.02 ± 0.04
x2 = 0.1008 | 16.55 ± 0.05 | 15.87 ± 0.05 | 15.15 ± 0.05 | 14.52 ± 0.05 | 13.88 ± 0.05
x2 = 0.2 | 20.53 ± 0.05 | 19.71 ± 0.05 | 18.92 ± 0.05 | 18.2 ± 0.05 | 17.54 ± 0.05
x2 = 0.3004 | 24.06 ± 0.05 | 23.14 ± 0.05 | 22.27 ± 0.05 | 21.5 ± 0.05 | 20.81 ± 0.05
x2 = 0.4 | 27.18 ± 0.05 | 26.2 ± 0.06 | 25.26 ± 0.05 | 24.45 ± 0.05 | 23.7 ± 0.05
x2 = 0.5 | 30.06 ± 0.06 | 28.98 ± 0.06 | 27.97 ± 0.06 | 27.11 ± 0.05 | 26.32 ± 0.05
x2 = 0.6008 | 32.56 ± 0.06 | 31.43 ± 0.06 | 30.36 ± 0.06 | 29.47 ± 0.05 | 28.73 ± 0.05
x2 = 0.6997 | 34.55 ± 0.06 | 33.33 ± 0.06 | 32.27 ± 0.06 | 31.35 ± 0.05 | 30.61 ± 0.05
x2 = 0.7489 | 35.32 ± 0.06 | 34.05 ± 0.06 | 32.96 ± 0.06 | 32.01 ± 0.05 | 31.26 ± 0.05
x2 = 0.8 | 35.94 ± 0.07 | 34.57 ± 0.06 | 33.43 ± 0.06 | 32.48 ± 0.05 | 31.69 ± 0.05
x2 = 0.8499 | 36.33 ± 0.07 | 34.95 ± 0.07 | 33.75 ± 0.06 | 32.73 ± 0.05 | 31.91 ± 0.05
x2 = 0.9004 | 36.49 ± 0.06 | 35.1 ± 0.07 | 33.86 ± 0.06 | 32.83 ± 0.05 | 32.03 ± 0.05
x2 = 0.9488 | 36.3 ± 0.07 | 34.95 ± 0.06 | 33.8 ± 0.06 | 32.85 ± 0.05 | 32.14 ± 0.05

CCCCOCCO [2-butoxyethan-1-ol] + O=[N+]([O-])c1ccccc1
relative permittivity
Conditions | 293.15 K | 298.15 K | 303.15 K | 308.15 K | 313.15 K
x2 = 0 | 9.78 ± 0.04 | 9.35 ± 0.04 | 8.88 ± 0.04 | 8.39 ± 0.04 | 7.91 ± 0.04
x2 = 0.05 | 12.73 ± 0.05 | 11.87 ± 0.05 | 11.04 ± 0.05 | 10.26 ± 0.05 | 9.54 ± 0.05
x2 = 0.0999 | 15.28 ± 0.05 | 14.32 ± 0.06 | 13.35 ± 0.06 | 12.37 ± 0.06 | 11.45 ± 0.05
x2 = 0.2003 | 19.6 ± 0.05 | 18.58 ± 0.06 | 17.59 ± 0.06 | 16.63 ± 0.06 | 15.76 ± 0.06
x2 = 0.3 | 23.44 ± 0.06 | 22.39 ± 0.06 | 21.39 ± 0.06 | 20.42 ± 0.05 | 19.59 ± 0.06
x2 = 0.4 | 27 ± 0.06 | 25.85 ± 0.06 | 24.78 ± 0.06 | 23.77 ± 0.06 | 22.92 ± 0.06
x2 = 0.5 | 30.19 ± 0.06 | 28.96 ± 0.06 | 27.82 ± 0.06 | 26.74 ± 0.06 | 25.84 ± 0.06
x2 = 0.6 | 32.88 ± 0.06 | 31.6 ± 0.06 | 30.44 ± 0.06 | 29.34 ± 0.06 | 28.49 ± 0.06
x2 = 0.7 | 34.91 ± 0.06 | 33.59 ± 0.06 | 32.5 ± 0.06 | 31.36 ± 0.06 | 30.53 ± 0.06
x2 = 0.7493 | 35.71 ± 0.07 | 34.34 ± 0.07 | 33.12 ± 0.06 | 32.06 ± 0.06 | 31.22 ± 0.05
x2 = 0.8 | 36.29 ± 0.07 | 34.85 ± 0.07 | 33.69 ± 0.06 | 32.47 ± 0.06 | 31.69 ± 0.05
x2 = 0.8506 | 36.65 ± 0.07 | 35.21 ± 0.07 | 33.91 ± 0.06 | 32.79 ± 0.06 | 31.92 ± 0.05
x2 = 0.9 | 36.77 ± 0.07 | 35.26 ± 0.07 | 33.96 ± 0.06 | 32.85 ± 0.06 | 32.04 ± 0.05
x2 = 0.9499 | 36.52 ± 0.07 | 35.09 ± 0.07 | 33.86 ± 0.06 | 32.84 ± 0.05 | 32.1 ± 0.05
